# Experimental data: patent US9833497B2, “Human originated EGF domain proteins and use of the same” (CHENGDU SOURCEBIO LIMITED-LIABILITY COMPANY, priority 2013, dated 2017)
# How the values were obtained:
# Format in all cases: cell-based
# Serratia marcescens = test: MIC against Gram-negative bacteria: Serratia marcescens; settings: for MIC (μg/mL) S. marcescens / MIC against S. marcescens: 5×10^5 CFU/mL; for MIC against S. marcescens: Serratia marcescens
# In short: (§1)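 First, colonies from LB agar were grown in LB at 37° C, 185 rpm, to McFarland turbidity 0.5, then centrifuged and resuspended in fresh LB. Next, wells received 5×10^5 CFU/mL bacteria plus two-fold serially diluted EGF domain protein (triplicate). Finally, plates were shaken at 37° C and the no-growth concentration taken as MIC.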
# Proteus vulgaris = test: MIC against Gram-negative bacteria: Proteus vulgaris; settings: for MIC (μg/mL) P. vulgaris / MIC against P. vulgaris: 5×10^5 CFU/mL; for MIC against P. vulgaris: Proteus vulgaris
# In short: as §1
# Pseudomonas aeruginosa = test: MIC against Gram-negative bacteria: Pseudomonas aeruginosa; settings: for MIC (μg/mL) P. aeruginosa / MIC against P. aeruginosa: 5×10^5 CFU/mL; for MIC against P. aeruginosa: Pseudomonas aeruginosa
# In short: as §1
# Enterobacter cloacae = test: MIC against Gram-negative bacteria: Enterobacter cloacae; settings: for MIC (μg/mL) E. cloacae / MIC against E. cloacae: 5×10^5 CFU/mL; for MIC against E. cloacae: Enterobacter cloacae
# In short: as §1
# E. coli BL21 = test: MIC against Gram-negative bacteria: E. coli BL21; settings: E. coli BL21; for MIC (μg/mL) E. coli BL21 / MIC against E. coli BL21: 5×10^5 CFU/mL
# In short: as §1
# Aeromonas hydrophila = test: MIC against Gram-negative bacteria: Aeromonas hydrophila; settings: for MIC (μg/mL) A. hydrophila / MIC against A. hydrophila: 5×10^5 CFU/mL; for MIC against A. hydrophila: Aeromonas hydrophila
# In short: as §1
# Klebsiella pneumonia = test: MIC against Gram-negative bacteria: Klebsiella pneumonia; settings: for MIC (μg/mL) K. pneumonia / MIC against K. pneumonia: 5×10^5 CFU/mL; for MIC against K. pneumonia: Klebsiella pneumonia
# In short: as §1
# Moraxella catarrhalis = test: MIC against Gram-negative bacteria: Moraxella catarrhalis; settings: for MIC (μg/mL) M. catarrhalis / MIC against M. catarrhalis: 5×10^5 CFU/mL; for MIC against M. catarrhalis: Moraxella catarrhalis
# In short: as §1
# Citrobacter diversus = test: MIC against Gram-negative bacteria: Citrobacter diversus; settings: for MIC (μg/mL) C. diversus / MIC against C. diversus: 5×10^5 CFU/mL; for MIC against C. diversus: Citrobacter diversus
# In short: as §1
# Proteus mirabilis = test: MIC against Gram-negative bacteria: Proteus mirabilis; settings: for MIC (μg/mL) P. mirabilis / MIC against P. mirabilis: 5×10^5 CFU/mL; for MIC against P. mirabilis: Proteus mirabilis
# In short: as §1
# E. coli DH5α = test: Antibacterial activity: MIC and growth curve against E. coli DH5α in 96-well plate; settings: minimal inhibitory concentration against E. coli DH5α; 96-well plate, 5×10^5 CFU/mL, 37° C., judged after 8 h
# In short: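 Log-phase DH5α (OD600 about 0.5, 37° C, 185 rpm in LB) was pelleted, resuspended in fresh LB and seeded at 5×10^5 CFU/mL with recombinant protein at 50, 25 and 12.5 μg/mL (two-fold series), in triplicate. Plates were shaken at 175 rpm, 37° C, and OD600 was read every 30 min. MIC was the lowest concentration with no growth.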
# [1] = S. marcescens, 10 h cultivation at 37° C.
# [2] = P. vulgaris, 10 h cultivation at 37° C.
# [3] = P. aeruginosa, 10 h cultivation at 37° C.
# [4] = E. cloacae, 10 h cultivation at 37° C.
# [5] = A. hydrophila, 10 h cultivation at 37° C.
# [6] = K. pneumonia, 10 h cultivation at 37° C.
# [7] = M. catarrhalis, 10 h cultivation at 37° C.
# [8] = C. diversus, 10 h cultivation at 37° C.
# [9] = P. mirabilis, 10 h cultivation at 37° C.
substance,measurement,setting,value
PRT232 (DIDECRQDPSTCGPNSICTNALGSYSCGCIAGFHPNPEGSQKDGNFSCQ; listed as Homo sapiens),MIC (μg/mL) S. marcescens,Serratia marcescens; [1],25 µg/mL
same,MIC (μg/mL) P. vulgaris,Proteus vulgaris; [2],12.5 µg/mL
same,MIC (μg/mL) P. aeruginosa,Pseudomonas aeruginosa; [3],25 µg/mL
same,MIC (μg/mL) E. cloacae,Enterobacter cloacae; [4],25 µg/mL
same,MIC (μg/mL) E. coli BL21,E. coli BL21; 10 h cultivation at 37° C.,12.5 µg/mL
same,MIC (μg/mL) A. hydrophila,Aeromonas hydrophila; [5],12.5 µg/mL
same,MIC (μg/mL) K. pneumonia,Klebsiella pneumonia; [6],12.5 µg/mL
same,MIC (μg/mL) M. catarrhalis,Moraxella catarrhalis; [7],12.5 µg/mL
same,MIC (μg/mL) C. diversus,Citrobacter diversus; [8],25 µg/mL
same,MIC (μg/mL) P. mirabilis,Proteus mirabilis; [9],25 µg/mL
same,MIC,E. coli DH5α,25 µg/mL
PRT1217 (EITACFPNPCRNGGSCDPIGNTFICNCKAGLTGVTCE; listed as Homo sapiens),MIC against S. marcescens,"Serratia marcescens; 96-well plate, 37° C., 10 h",12.5 µg/mL
same,MIC against P. vulgaris,"Proteus vulgaris; 96-well plate, 37° C., 10 h",25 µg/mL
same,MIC against P. aeruginosa,"Pseudomonas aeruginosa; 96-well plate, 37° C., 10 h",50 µg/mL
same,MIC against E. cloacae,"Enterobacter cloacae; 96-well plate, 37° C., 10 h",25 µg/mL
same,MIC against E. coli BL21,"E. coli BL21; 96-well plate, 37° C., 10 h",12.5 µg/mL
same,MIC against A. hydrophila,"Aeromonas hydrophila; 96-well plate, 37° C., 10 h",50 µg/mL
same,MIC against K. pneumonia,"Klebsiella pneumonia; 96-well plate, 37° C., 10 h",12.5 µg/mL
same,MIC against M. catarrhalis,"Moraxella catarrhalis; 96-well plate, 37° C., 10 h",12.5 µg/mL
same,MIC against C. diversus,"Citrobacter diversus; 96-well plate, 37° C., 10 h",25 µg/mL
same,MIC against P. mirabilis,"Proteus mirabilis; 96-well plate, 37° C., 10 h",50 µg/mL
same,MIC,E. coli DH5α,50 µg/mL
PRT1231 (IGPSCLKFCSGRGQCTRHGCKCDPGFSGPACE; listed as Homo sapiens),MIC against S. marcescens,"Serratia marcescens; 96-well plate, 37° C., 10 h",25 µg/mL
same,MIC against P. vulgaris,"Proteus vulgaris; 96-well plate, 37° C., 10 h",12.5 µg/mL
same,MIC against P. aeruginosa,"Pseudomonas aeruginosa; 96-well plate, 37° C., 10 h",50 µg/mL
same,MIC against E. cloacae,"Enterobacter cloacae; 96-well plate, 37° C., 10 h",50 µg/mL
same,MIC against E. coli BL21,"E. coli BL21; 96-well plate, 37° C., 10 h",25 µg/mL
same,MIC against A. hydrophila,"Aeromonas hydrophila; 96-well plate, 37° C., 10 h",100 µg/mL
same,MIC against K. pneumonia,"Klebsiella pneumonia; 96-well plate, 37° C., 10 h",12.5 µg/mL
same,MIC against M. catarrhalis,"Moraxella catarrhalis; 96-well plate, 37° C., 10 h",12.5 µg/mL
same,MIC against C. diversus,"Citrobacter diversus; 96-well plate, 37° C., 10 h",50 µg/mL
same,MIC against P. mirabilis,"Proteus mirabilis; 96-well plate, 37° C., 10 h",50 µg/mL
same,MIC,E. coli DH5α,12.5 µg/mL
PRT1366 (ERLACPGACSGHGRCVDGRCLCHEPYVGADCG; listed as Homo sapiens),MIC against S. marcescens,Serratia marcescens; 10 h cultivation at 37° C.,12.5 µg/mL
same,MIC against P. vulgaris,Proteus vulgaris; 10 h cultivation at 37° C.,12.5 µg/mL
same,MIC against P. aeruginosa,Pseudomonas aeruginosa; 10 h cultivation at 37° C.,12.5 µg/mL
same,MIC against E. cloacae,Enterobacter cloacae; 10 h cultivation at 37° C.,12.5 µg/mL
same,MIC against E. coli BL21,E. coli BL21; 10 h cultivation at 37° C.,12.5 µg/mL
same,MIC against A. hydrophila,Aeromonas hydrophila; 10 h cultivation at 37° C.,12.5 µg/mL
same,MIC against K. pneumonia,Klebsiella pneumonia; 10 h cultivation at 37° C.,25 µg/mL
same,MIC against M. catarrhalis,Moraxella catarrhalis; 10 h cultivation at 37° C.,12.5 µg/mL
same,MIC against C. diversus,Citrobacter diversus; 10 h cultivation at 37° C.,12.5 µg/mL
same,MIC against P. mirabilis,Proteus mirabilis; 10 h cultivation at 37° C.,12.5 µg/mL
same,MIC,E. coli DH5α,12.5 µg/mL
PRT224 (DVNECDMGAPCEQRCFNSYGTFLCRCHQGYELHRDGFSCS; listed as Homo sapiens),MIC (μg/mL) S. marcescens,Serratia marcescens; [1],50 µg/mL
same,MIC (μg/mL) P. vulgaris,Proteus vulgaris; [2],12.5 µg/mL
same,MIC (μg/mL) P. aeruginosa,Pseudomonas aeruginosa; [3],25 µg/mL
same,MIC (μg/mL) E. cloacae,Enterobacter cloacae; [4],12.5 µg/mL
same,MIC (μg/mL) E. coli BL21,E. coli BL21; 10 h cultivation at 37° C.,12.5 µg/mL
same,MIC (μg/mL) A. hydrophila,Aeromonas hydrophila; [5],12.5 µg/mL
same,MIC (μg/mL) K. pneumonia,Klebsiella pneumonia; [6],12.5 µg/mL
same,MIC (μg/mL) M. catarrhalis,Moraxella catarrhalis; [7],12.5 µg/mL
same,MIC (μg/mL) C. diversus,Citrobacter diversus; [8],12.5 µg/mL
same,MIC (μg/mL) P. mirabilis,Proteus mirabilis; [9],12.5 µg/mL
same,MIC,E. coli DH5α,25 µg/mL
PRT1001 (EMTACHSGPCLNGGSCNPSPGGYYCTCPPSHTGPQCQ; listed as Homo sapiens),MIC,Serratia marcescens; [1],50 µg/mL
same,MIC,Proteus vulgaris; [2],25 µg/mL
same,MIC,Pseudomonas aeruginosa; [3],12.5 µg/mL
same,MIC,Enterobacter cloacae; [4],25 µg/mL
same,MIC,E. coli BL21; 10 h cultivation at 37° C.,50 µg/mL
same,MIC,Aeromonas hydrophila; [5],12.5 µg/mL
same,MIC,Klebsiella pneumonia; [6],50 µg/mL
same,MIC,Moraxella catarrhalis; [7],25 µg/mL
same,MIC,Citrobacter diversus; [8],50 µg/mL
same,MIC,Proteus mirabilis; [9],12.5 µg/mL
same,MIC,E. coli DH5α,12.5 µg/mL
PRT790 (HGPQCEQRCPCQNGGVCHHVTGECSCPSGWMGTVCG; listed as Homo sapiens),MIC (μg/mL) S. marcescens,Serratia marcescens; [1],12.5 µg/mL
same,MIC (μg/mL) P. vulgaris,Proteus vulgaris; [2],50 µg/mL
same,MIC (μg/mL) P. aeruginosa,Pseudomonas aeruginosa; [3],25 µg/mL
same,MIC (μg/mL) E. cloacae,Enterobacter cloacae; [4],12.5 µg/mL
same,MIC (μg/mL) E. coli BL21,E. coli BL21; 10 h cultivation at 37° C.,50 µg/mL
same,MIC (μg/mL) A. hydrophila,Aeromonas hydrophila; [5],25 µg/mL
same,MIC (μg/mL) K. pneumonia,Klebsiella pneumonia; [6],25 µg/mL
same,MIC (μg/mL) M. catarrhalis,Moraxella catarrhalis; [7],25 µg/mL
same,MIC (μg/mL) C. diversus,Citrobacter diversus; [8],50 µg/mL
same,MIC (μg/mL) P. mirabilis,Proteus mirabilis; [9],12.5 µg/mL
same,MIC,E. coli DH5α,25 µg/mL
